# In patent publication US20230143604A1, “QW DOSING OF GIP RECEPTOR AGONIST PEPTIDE COMPOUNDS AND USES THEREOF” (TAKEDA PHARMACEUTICAL COMPANY LIMITED, priority 2020, published 2023):
# Starred links: 1 amine or outer side, 2 acyl side, 3 side chain; linkers in the order of their positions; H or OH if unused. Non-standard residues stand in square brackets, D forms with d. Residues, ends and D or L forms follow the SMILES beside them. Groups on a side chain read outwards from the residue. *: point of attachment. C18 diacid = O=C(O)CCCCCCCCCCCCCCCCC(=O)*; γGlu = O=C(O)[C@H](CCC(=O)[*:2])N[*:1]; NMeY = CN[C@@H](Cc1ccc(O)cc1)C(=O)O; AEEA = NCCOCCOCC(=O)O; Aib = CC(C)(N)C(=O)O
# Assay: physchem
# How it was run: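 Solubility at pH 7.4 determined by stepwise addition of 200 mM phosphate buffer in 100 μL increments to 3 mg peptide, mixing briefly each time, until no insoluble material remained, then measured by liquid chromatography.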
SMILES,solubility (pH 7.4) [mg/mL],"solubility (pH 7.4, aqueous buffer) [mg/mL]","solubility (pH 7.4, aqueous buffer, pH 7.4 Phosphate Buffer - Solubility, 200 mM Phosphate buffer pH 7.4) [mg/mL]","solubility (pH 7.4, solubility in phosphate buffer at pH 7.4, 200 mM phosphate buffer pH 7.4) [mg/mL]"
CC[C@H](C)[C@H](NC(=O)[C@H](Cc1ccccc1)NC(=O)[C@@H](NC(=O)CNC(=O)[C@H](CCC(=O)O)NC(=O)C(C)(C)NC(=O)[C@@H](N)Cc1ccc(O)cc1)[C@@H](C)O)C(=O)N[C@@H](CO)C(=O)N[C@@H](CC(=O)O)C(=O)N[C@@H](Cc1ccc(O)cc1)C(=O)N[C@@H](CO)C(=O)N[C@H](C(=O)NC(C)(C)C(=O)N[C@@H](CC(C)C)C(=O)N[C@@H](CC(=O)O)C(=O)N[C@@H](CCCCN)C(=O)N[C@@H](C)C(=O)N[C@@H](CCCCNC(=O)COCCOCCNC(=O)COCCOCCNC(=O)CC[C@H](NC(=O)CCCCCCCCCCCCCCCCC(=O)O)C(=O)O)C(=O)N[C@@H](CCC(N)=O)C(=O)N[C@@H](C)C(=O)N[C@@H](CC(=O)O)C(=O)N[C@@H](Cc1ccccc1)C(=O)N[C@H](C(=O)N[C@@H](CC(N)=O)C(=O)N[C@@H](Cc1c[nH]c2ccccc12)C(=O)N[C@@H](CC(C)C)C(=O)N[C@@H](CC(C)C)C(=O)N[C@@H](C)C(=O)N[C@@H](CCC(N)=O)C(=O)N[C@@H](CCCNC(=N)N)C(=O)NCC(=O)O)C(C)C)[C@@H](C)CC [Compound 171] (H-Y[Aib]EGTFISDYSI[Aib]LDKAK([AEEA-AEEA-γGlu-C18 diacid])QADFVNWLLAQRG-OH),≥ 15,≥ 30,,
CC[C@H](C)[C@H](NC(=O)[C@H](CCCCN)NC(=O)[C@H](CC(=O)O)NC(=O)[C@H](CC(C)C)NC(=O)C(C)(C)NC(=O)[C@@H](NC(=O)[C@H](CO)NC(=O)[C@H](Cc1ccc(O)cc1)NC(=O)[C@H](CC(=O)O)NC(=O)[C@H](CO)NC(=O)[C@@H](NC(=O)[C@H](Cc1ccccc1)NC(=O)[C@@H](NC(=O)CNC(=O)[C@H](CCC(=O)O)NC(=O)C(C)(C)NC(=O)[C@@H](N)Cc1ccc(O)cc1)[C@@H](C)O)[C@@H](C)CC)[C@@H](C)CC)C(=O)N[C@@H](CCCCNC(=O)COCCOCCNC(=O)COCCOCCNC(=O)CC[C@H](NC(=O)CCCCCCCCCCCCCCCCC(=O)O)C(=O)O)C(=O)N[C@@H](CCC(N)=O)C(=O)N[C@@H](C)C(=O)N[C@@H](CC(=O)O)C(=O)N[C@@H](Cc1ccccc1)C(=O)N[C@H](C(=O)N[C@@H](CC(N)=O)C(=O)N[C@@H](Cc1c[nH]c2ccccc12)C(=O)N[C@@H](CC(C)C)C(=O)N[C@@H](CC(C)C)C(=O)N[C@@H](C)C(=O)N[C@@H](CCC(N)=O)C(=O)N[C@@H](CCCNC(=N)N)C(=O)NCC(=O)O)C(C)C [Compound 172] (H-Y[Aib]EGTFISDYSI[Aib]LDKIK([AEEA-AEEA-γGlu-C18 diacid])QADFVNWLLAQRG-OH),≥ 15,≥ 30,,
CC[C@H](C)[C@H](NC(=O)[C@H](CCCCN)NC(=O)[C@H](CC(=O)O)NC(=O)[C@H](CC(C)C)NC(=O)[C@H](C)NC(=O)[C@@H](NC(=O)[C@H](CO)NC(=O)[C@H](Cc1ccc(O)cc1)NC(=O)[C@H](CC(=O)O)NC(=O)[C@H](CO)NC(=O)[C@@H](NC(=O)[C@H](Cc1ccccc1)NC(=O)[C@@H](NC(=O)CNC(=O)[C@H](CCC(=O)O)NC(=O)C(C)(C)NC(=O)[C@H](Cc1ccc(O)cc1)NC)[C@@H](C)O)[C@@H](C)CC)[C@@H](C)CC)C(=O)N[C@@H](C)C(=O)N[C@@H](CCC(N)=O)C(=O)NC(C)(C)C(=O)N[C@@H](CCCCNC(=O)COCCOCCNC(=O)COCCOCCNC(=O)CC[C@H](NC(=O)CC[C@H](NC(=O)CCCCCCCCCCCCCCCCC(=O)O)C(=O)O)C(=O)O)C(=O)N[C@@H](Cc1ccccc1)C(=O)N[C@H](C(=O)N[C@@H](CCC(=O)O)C(=O)N[C@@H](Cc1c[nH]c2ccccc12)C(=O)N[C@@H](CC(C)C)C(=O)N[C@@H](CC(C)C)C(=O)N[C@@H](C)C(=O)N[C@@H](CCC(N)=O)C(=O)N[C@@H](CCCNC(=N)N)C(=O)NCC(=O)O)C(C)C [Compound 173] (H-[NMeY][Aib]EGTFISDYSIALDKIAQ[Aib]K([AEEA-AEEA-γGlu-γGlu-C18 diacid])FVEWLLAQRG-OH),≥ 15,≥ 30,,
CC[C@H](C)[C@H](NC(=O)[C@H](CO)NC(=O)[C@H](Cc1ccc(O)cc1)NC(=O)[C@H](CC(=O)O)NC(=O)[C@H](CO)NC(=O)[C@@H](NC(=O)[C@H](Cc1ccccc1)NC(=O)[C@@H](NC(=O)CNC(=O)[C@H](CCC(=O)O)NC(=O)C(C)(C)NC(=O)[C@H](Cc1ccc(O)cc1)NC)[C@@H](C)O)[C@@H](C)CC)C(=O)N[C@@H](C)C(=O)N[C@@H](CC(C)C)C(=O)N[C@@H](CC(=O)O)C(=O)N[C@@H](CCCCN)C(=O)N[C@@H](C)C(=O)N[C@@H](C)C(=O)N[C@@H](CCC(N)=O)C(=O)NC(C)(C)C(=O)N[C@@H](CCCCNC(=O)COCCOCCNC(=O)COCCOCCNC(=O)CC[C@H](NC(=O)CC[C@H](NC(=O)CCCCCCCCCCCCCCCCC(=O)O)C(=O)O)C(=O)O)C(=O)N[C@@H](Cc1ccccc1)C(=O)N[C@H](C(=O)N[C@@H](CCC(=O)O)C(=O)N[C@@H](Cc1c[nH]c2ccccc12)C(=O)N[C@@H](CC(C)C)C(=O)N[C@@H](CC(C)C)C(=O)N[C@@H](C)C(=O)N[C@@H](CCC(N)=O)C(=O)N[C@@H](CCCNC(=N)N)C(=O)NCC(=O)O)C(C)C [Compound 174] (H-[NMeY][Aib]EGTFISDYSIALDKAAQ[Aib]K([AEEA-AEEA-γGlu-γGlu-C18 diacid])FVEWLLAQRG-OH),≥ 15,≥ 30,,
CC[C@H](C)[C@H](NC(=O)[C@H](CCCCN)NC(=O)[C@H](CC(=O)O)NC(=O)[C@H](CC(C)C)NC(=O)[C@H](C)NC(=O)[C@@H](NC(=O)[C@H](CO)NC(=O)[C@H](Cc1ccc(O)cc1)NC(=O)[C@H](CC(=O)O)NC(=O)[C@H](CO)NC(=O)[C@@H](NC(=O)[C@H](Cc1ccccc1)NC(=O)[C@@H](NC(=O)CNC(=O)[C@H](CCC(=O)O)NC(=O)C(C)(C)NC(=O)[C@H](Cc1ccc(O)cc1)NC)[C@@H](C)O)[C@@H](C)CC)[C@@H](C)CC)C(=O)N[C@@H](C)C(=O)N[C@@H](CCC(N)=O)C(=O)NC(C)(C)C(=O)N[C@@H](CCCCNC(=O)COCCOCCNC(=O)COCCOCCNC(=O)CC[C@H](NC(=O)CC[C@H](NC(=O)CCCCCCCCCCCCCCCCC(=O)O)C(=O)O)C(=O)O)C(=O)N[C@@H](Cc1ccccc1)C(=O)N[C@H](C(=O)N[C@@H](CC(N)=O)C(=O)N[C@@H](Cc1c[nH]c2ccccc12)C(=O)N[C@@H](CC(C)C)C(=O)N[C@@H](CC(C)C)C(=O)N[C@@H](C)C(=O)N[C@@H](CCC(N)=O)C(=O)N[C@@H](CCCNC(=N)N)C(=O)NCC(=O)O)C(C)C [Compound 175] (H-[NMeY][Aib]EGTFISDYSIALDKIAQ[Aib]K([AEEA-AEEA-γGlu-γGlu-C18 diacid])FVNWLLAQRG-OH),≥ 15,≥ 30,,
CC[C@H](C)[C@H](NC(=O)[C@H](CO)NC(=O)[C@H](Cc1ccc(O)cc1)NC(=O)[C@H](CC(=O)O)NC(=O)[C@H](CO)NC(=O)[C@@H](NC(=O)[C@H](Cc1ccccc1)NC(=O)[C@@H](NC(=O)CNC(=O)[C@H](CCC(=O)O)NC(=O)C(C)(C)NC(=O)[C@H](Cc1ccc(O)cc1)NC)[C@@H](C)O)[C@@H](C)CC)C(=O)N[C@@H](C)C(=O)N[C@@H](CC(C)C)C(=O)N[C@@H](CC(=O)O)C(=O)N[C@@H](CCCCN)C(=O)N[C@@H](C)C(=O)N[C@@H](C)C(=O)N[C@@H](CCC(N)=O)C(=O)NC(C)(C)C(=O)N[C@@H](CCCCNC(=O)COCCOCCNC(=O)COCCOCCNC(=O)CC[C@H](NC(=O)CC[C@H](NC(=O)CCCCCCCCCCCCCCCCC(=O)O)C(=O)O)C(=O)O)C(=O)N[C@@H](Cc1ccccc1)C(=O)N[C@H](C(=O)N[C@@H](CC(N)=O)C(=O)N[C@@H](Cc1c[nH]c2ccccc12)C(=O)N[C@@H](CC(C)C)C(=O)N[C@@H](CC(C)C)C(=O)N[C@@H](C)C(=O)N[C@@H](CCC(N)=O)C(=O)N[C@@H](CCCNC(=N)N)C(=O)NCC(=O)O)C(C)C [Compound 176] (H-[NMeY][Aib]EGTFISDYSIALDKAAQ[Aib]K([AEEA-AEEA-γGlu-γGlu-C18 diacid])FVNWLLAQRG-OH),≥ 15,≥ 30,,
CC[C@H](C)[C@H](NC(=O)[C@H](CCCNC(=N)N)NC(=O)[C@H](CC(=O)O)NC(=O)[C@H](CC(C)C)NC(=O)[C@H](C)NC(=O)[C@@H](NC(=O)[C@H](CO)NC(=O)[C@H](Cc1ccc(O)cc1)NC(=O)[C@H](CC(=O)O)NC(=O)[C@H](CO)NC(=O)[C@@H](NC(=O)[C@H](Cc1ccccc1)NC(=O)[C@@H](NC(=O)CNC(=O)[C@H](CCC(=O)O)NC(=O)C(C)(C)NC(=O)[C@H](Cc1ccc(O)cc1)NC)[C@@H](C)O)[C@@H](C)CC)[C@@H](C)CC)C(=O)N[C@@H](C)C(=O)N[C@@H](CCC(N)=O)C(=O)N[C@@H](CCC(N)=O)C(=O)N[C@@H](CCCCNC(=O)COCCOCCNC(=O)COCCOCCNC(=O)CC[C@H](NC(=O)CC[C@H](NC(=O)CCCCCCCCCCCCCCCCC(=O)O)C(=O)O)C(=O)O)C(=O)N[C@@H](Cc1ccccc1)C(=O)N[C@H](C(=O)N[C@@H](CC(N)=O)C(=O)N[C@@H](Cc1c[nH]c2ccccc12)C(=O)N[C@@H](CC(C)C)C(=O)N[C@@H](CC(C)C)C(=O)N[C@@H](C)C(=O)N[C@@H](CCC(N)=O)C(=O)N[C@@H](CO)C(=O)N1CCC[C@H]1C(=O)N[C@@H](CO)C(=O)N[C@@H](CO)C(=O)NCC(=O)N[C@@H](C)C(=O)N1CCC[C@H]1C(=O)N1CCC[C@H]1C(=O)N1CCC[C@H]1C(=O)N[C@@H](CO)C(=O)O)C(C)C [Compound 177] (H-[NMeY][Aib]EGTFISDYSIALDRIAQQK([AEEA-AEEA-γGlu-γGlu-C18 diacid])FVNWLLAQSPSSGAPPPS-OH),,,≥ 30,≥ 15
